Results from US9611223B2, “3-aryl-5-substituted-isoquinolin-1-one compounds and their therapeutic use” (INSTITUTE OF CANCER RESEARCH: ROYAL CANCER HOSPITAL (THE), priority 2013, dated 2017).

Tests used:
TNKS1 = biological target: T1, TNKS1 (Homo sapiens, UniProt O95271, M1266I); assay: TNKS1/PARP Biochemical Assay
T1 construct: expresses the active PARP domain of TNKS1 as a polyhistidine tagged protein; made in house; host or cells: E. coli Rosetta2(DE3)
Experimental: TNKS1/PARP Biochemical Assay
Tankyrase activity was assayed using a 96-well format HT Universal Chemiluminescent PARP Assay Kit (Trevigen, Inc, cat. no. 4676-096-K) according to the manufacturer's instructions. In short, tankyrase/PARP activity is quantified by the incorporation of biotinylated nicotinamide adenine dinucleotide (biotin-NAD^+) onto the immobilised pseudo substrate, Histone. The extent of poly(Biotin-ADP)ribosylation (PARylation) in the presence of increasing dose of inhibitor is then quantified by binding of streptavidin conjugated horse radish peroxidase (strep-HRP) followed by chemiluminescent detection.
Prior to assay initiation, inhibitor stocks were prepared in aqueous DMSO (10% (v/v)) from 5 millimolar (mM) stock in 100% DMSO (Sigma Aldrich, cat. no. 265855) as 10× concentrations. For the primary assay (i.e., single dose at 1 micromolar (μM) final concentration) this corresponded to 10 μM in 10% DMSO. For IC50 determination, this corresponded to 100 μM, 30 μM, 10 μM, 3.0 μM, 1.0 μM, 0.30 μM, 0.10 μM and 0 μM in 10% DMSO for final concentrations of 10 μM, 3.0 μM, 1.0 μM, 0.30 μM, 0.10 μM, 0.030 μM, 0.010 μM, and 0 μM with 1% (v/v) final DMSO. The assay was initiated by the addition of 10× inhibitor (5 microliters (μL)) or 10% aqueous DMSO (5 μL) to triplicate wells. Twenty microliters of diluted TNKS1 protein (200 nanomolar (nM) final conc.) in PARP buffer (Trevigen, Inc, cat. no. 4671-096-02) was added to each histone coated well, which was previously hydrated with PARP buffer. Triplicate wells with 1% DMSO/buffer alone (no enzyme) were also added as a measure of assay ‘noise’. Positive control for PARP inhibition included the addition of 4-amino-1,8-naphthalimide (Sigma Aldrich, cat. no A0966) in corresponding doses.
The mixture was incubated for 10 minutes at room temperature and the PARylation reaction initiated by the addition of PARP cocktail (25 μL, Trevigen, Inc) containing biotin-NAD^+ (Trevigen, Inc, cat. no. 4670-500-01), activated DNA (Trevigen, Inc, cat. no. 4671-096-06) and PARP buffer. The reaction was incubated for 1.5 hours (for TNKS1) or 1 hour (for PARP1) at room temperature. The reaction mixture was then removed by aspiration and the wells washed (3×200 μL) with phosphate buffered saline containing Triton X-100 (0.1% (v/v), Sigma Aldrich cat. no. T8787). The wells were then washed (3×200 μL) with phosphate buffered saline and then incubated with strep-HRP (50 μL, Trevigen, Inc, cat. no. 4800-30-06) in strep-diluent (1:500 dilution, Trevigen Inc, cat. no. 4671-096-04) for 1 hour at room temperature. The Strep-HRP mixture was then aspirated and the wells washed (3×200 μL) with phosphate buffered saline containing Triton X-100 (0.1% (v/v)) followed by phosphate buffered saline (3×200 μL) and then incubated with PeroxyGlow™ reagent (100 μL, Trevigen, Inc, cat. nos. 4675-096-01, 4675-096-02, room temperature, mixed 1:1).
The amount of light emitted as a result of the peroxidase-chemiluminescent reagent reaction was in proportion to the extent of poly(Biotin-ADP)ribosylation and was immediately measured with a Victor^2 plate reader (Perkin Elmer, luminescence detection assay, luminescent units described as ‘Counts Per Second’ (CPS)). The data were normalised to the DMSO control after subtraction of ‘noise’ and was expressed as % PARP activity as a function of inhibitor dose. Inhibition was expressed as 100%−(% PARP activity). Dose response curves used to determine IC50 values were Log transformed and analysed by non-linear regression analysis (variable slope) using Prism (GraphPad Software, Inc) and were presented as IC50 with 95% confidence interval to determine relative potency.
Tankyrase1 (pNIC-Bsa4-TNKS1^PARP) expression construct was obtained from the Structural Genomics Consortium (SGC) and expresses the active PARP domain of TNKS1 as a polyhistidine tagged protein. […]

Wnt signalling = assay: Wnt-Luciferase Reporter Assay; type: cell-based; conditions: DLD1-Wnt-Luc cells, 20-22 hours
Experimental: Wnt-Luciferase Reporter Assay
A Wnt dependent cell line (i.e., DLD1 colorectal adenocarcinoma cell line) was transduced with replication incompetent VSV-g pseudotyped lentiviral particles expressing the firefly luciferase gene under the control of minimal cytomegalovirus (mCMV) promoter and tandem repeats of the TCF/LEF transcriptional response element.
DLD1-Wnt-Luc cells were seeded (5000 cells/well) in a 96-well plate (Greiner Bio-One, cat. no. 655098) in Dubelco's Modified Eagle Medium (DMEM, SFBCO/Invitrogen, cat no. 41965-039) supplemented with Fetal Bovine Serum (FBS, 10%, SFBCO/Invitrogen, cat no. 10108-165). After overnight incubation, the media was replaced with OptiMEM (SFBCO/Invitrogen, cat no. 11058-021) supplemented with FBS (0.5%) and non-essential amino acids (1%, SFBCO/Invitrogen, cat no. 11140-035) and the appropriate putative TNKS inhibitor at a final concentration of 10 μM, 3 μM, 1 μM, 0.30 μM, 0.10 μM, 0.030 μM, 0.010 μM and 0 μM with 1% (v/v) final DMSO in double-triplicate wells. Positive control includes the use of XAV-939 (Maybridge, FisherScientific, 3,5,7,8-tetrahydro-2-[4-(trifluoromethyl)phenyl]-4H-thiopyrano[4,3-d]pyrimidin-4-one, cat. no. RF03920, see: Huang et al., Nature, 2009, Vol. 461, pp. 614-620). Cells were incubated for 20-22 hours before assaying for luciferase (first set of triplicates: Wnt activation) and viability (second set of triplicates: cell survival for data normalisation vs Wnt-activation) using ONE-Glo (Promega, cat. no. E6110) and CellTiter-Glo (Promega, cat. no. G7570) reagents consecutively. The assay was measured using a Victor^2 plate reader. The data were normalised to the DMSO control and were expressed as % Wnt activity as a function of inhibitor dose. Dose response curves used to determine IC50 values were Log transformed and analysed by non-linear regression analysis (variable slope) using Prism (GraphPad Software, Inc).

T1 sequence (O95271 1112-1317 M1266I): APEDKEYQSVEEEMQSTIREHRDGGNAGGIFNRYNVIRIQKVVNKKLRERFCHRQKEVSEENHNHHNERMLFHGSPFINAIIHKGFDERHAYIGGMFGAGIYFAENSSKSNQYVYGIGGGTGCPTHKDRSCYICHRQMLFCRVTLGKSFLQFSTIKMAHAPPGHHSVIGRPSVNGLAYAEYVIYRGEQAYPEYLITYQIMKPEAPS

Row | SMILES | IC50 (TNKS1) | IC50 (Wnt signalling)
1 | CN(C)C1CCN(Cc2ccc(-c3cc4c(C#N)cccc4c(=O)[nH]3)cc2)C1 (centres unmarked) [IQ-011] | < 100 nM | < 300 nM
2 | CN1CCN(Cc2ccc(-c3cc4c(C#N)cccc4c(=O)[nH]3)cc2)CC1 [IQ-002, 3-[4-(4-Methyl-piperazin-1-ylmethyl)-phenyl]-1-oxo-1,2-dihydro-isoquinoline-5-carbonitrile] | < 50 nM | < 300 nM
3 | CN(C)C1CCN(Cc2ccc(-c3cc4c(C#N)cccc4c(=O)[nH]3)cc2)CC1 [IQ-012] | < 50 nM | < 300 nM
4 | CN1CCN(Cc2ccc(-c3cc4c(C#N)cc(F)cc4c(=O)[nH]3)cc2)CC1 [IQ-014] | < 100 nM | < 300 nM
